Reference: PMC12332667, “Role of Structural Modifications in Peptidomimetic Compounds as Potential Antimicrobial Agents against Staphylococcus aureus and Streptococcus pyogenes: Balancing Bioavailability, Safety, and Antimicrobial Activity” (ACS Omega, 2025)
In brackets after ≈: the same amount, converted by molar mass.

How the values were obtained:
[1] = system: S. aureus ATCC 43300; assay: MIC/MBC broth microdilution, S. aureus; assay type: cell-based, Staphylococcus aureus; conditions: S. aureus
[2] = system: S. pyogenes ATCC 19615; assay: MIC/MBC broth microdilution, S. pyogenes; assay type: cell-based, Streptococcus pyogenes; conditions: S. pyogenes
Protocol: (§1) S. aureus (ATCC 29213),S. pyogenes (ATCC 19615),Streptococcus agalactiae (ATCC 27956),Escherichia coli (ATCC 25922),Proteus vulgaris (ATCC 6896),K. pneumoniae (ATCC 700603) andP. aeruginosa (ATCC 10145) reference strains, as well asStaphylococcus cohnii, Enterococcus faecalis, Staphylococcus schleiferi, Staphylococcus intermedius and Streptococcus mutans clinical isolates, were used to test the antibacterial activity of the peptidomimetics. Bacteria were aerobically cultured for 18 h at 37 °C in plates with sterilized brain heart infusion (BHI) broth (Sigma-Aldrich, USA) media mixed with bacteriological agar (Sigma-Aldrich, USA) using the streak plate method. After 18 h, BHI broth was inoculated to 0.5 on the McFarland scale and diluted to approximately 10^5 CFU/mL. To achieve a final stock concentration of 1024 μg/mL, the peptidomimetics were dissolved in sterile water, and 5–10% of absolute ethanol or dimethyl sulfoxide (DMSO) was added. The antibacterial activities were determined by using the standard broth microdilution method of the National Committee for Clinical Laboratory Standards. The process involved adding serially diluted peptidomimetics to consecutive wells of a 96-well microtiter plate (Brand, Germany) holding media with microorganisms. The inoculated plates treated with peptides were then placed in an incubator at 37 °C for 18 h. The MIC value was determined as the lowest concentration of peptidomimetic at which there was no obvious growth (equal or more than 90% of the untreated sample). […] The lowest concentration yielding growth in no more than 3 colonies, corresponding to at least a 99.9% kill rate, was taken as MBC. Each biological replicate included control wells with the addition of water, DMSO, and ethanol as respective solvent controls. All experiments were conducted with consistent adherence to growth and sterility controls and were performed at least in technical triplicate with three biological repeats.

[3] = system: S. cohnii c.i.; assay: MIC/MBC broth microdilution, S. cohnii; assay type: cell-based, Staphylococcus cohnii
Protocol: as §1

[4] = system: E. faecalis c.i.; assay: MIC/MBC broth microdilution, E. faecalis; assay type: cell-based, Enterococcus faecalis
Protocol: as §1

[5] = system: S. schleiferi c.i.; assay: MIC/MBC broth microdilution, S. schleiferi; assay type: cell-based, Staphylococcus schleiferi
Protocol: as §1

[6] = system: S. agalactiae ATCC 27956; assay: MIC/MBC broth microdilution, S. agalactiae; assay type: cell-based, Streptococcus agalactiae; conditions: S. agalactiae
Protocol: as §1

[7] = system: S. intemrdius c.i.; assay: MIC/MBC broth microdilution, S. intermedius; assay type: cell-based, Staphylococcus intermedius
Protocol: as §1

[8] = system: S. mutans c.i.; assay: MIC/MBC broth microdilution, S. mutans; assay type: cell-based, Streptococcus mutans
Protocol: as §1

[9] = system: E. coli ATCC 25922; assay: MIC/MBC broth microdilution, E. coli; assay type: cell-based, Escherichia coli
Protocol: as §1

[10] = system: P. vulgaris ATCC 6896; assay: MIC/MBC broth microdilution, P. vulgaris; assay type: cell-based, Proteus vulgaris
Protocol: as §1

[11] = system: K. pneumoniae ATCC 700603; assay: MIC/MBC broth microdilution, K. pneumoniae; assay type: cell-based
Protocol: as §1

[12] = system: P. aeruginosa ATCC 10145; assay: MIC/MBC broth microdilution, P. aeruginosa; assay type: cell-based
Protocol: as §1

[13] = system: immortalized human keratinocytes (HaCaT); assay: LDH cytotoxicity test, keratinocytes; assay type: cell-based; conditions: 48 h
Protocol: (§2) In our study, we used two distinct cell types: immortalized human HaCaT keratinocytes (DKFZ, Heidelberg, Germany) and a human dermal fibroblast cell line (46BR.1N). […] Cultures were maintained in a humidified atmosphere with 5% CO2 at 37 °C in 25 cm^2 culture flasks with the medium replenished every 2 days. The condition of the cells was monitored using optical microscopy.
(§3) Cell death in immortalized human keratinocytes (HaCaT) and fibroblasts (46BR.1N) was measured by quantifying the lactate dehydrogenase (LDH) activity using a commercial kit (Roche, Switzerland). Cells were seeded in 96-well plates at a density of 5000 cells per well in DMEM high glucose medium supplemented with 10% FBS. After 24 h of incubation, the medium was replaced with serum-free medium containing various concentrations of peptidomimetics (50, 100, and 150 μg/mL). After 48 h, supernatants were collected for LDH analysis. Plate readings were taken spectrophotometrically using a 450 nm wavelength. Cell death measurements were normalized to an untreated control (0%), with 1% Triton X-100 detergent used as a positive control to induce maximum LDH release, indicating maximal cytotoxicity. Statistical significance was determined with a Mann–Whitney U test with a statistical significance p ≤ 0.05. Analysis was performed with Statistica software (Krakow, Poland) and graphs were prepared in GraphPad Prism (Boston, USA).

[14] = system: fibroblasts (46BR.1N); assay: LDH cytotoxicity test, fibroblasts; assay type: cell-based; conditions: 48 h
Protocol: as §2, §3

[15] = system: immortalized human HaCaT keratinocytes; assay: XTT cell proliferation assay, keratinocytes; assay type: cell-based
Protocol: (§4) In our study, we used two distinct cell types: immortalized human HaCaT keratinocytes (DKFZ, Heidelberg, Germany) and a human dermal fibroblast cell line (46BR.1N). […] Cultures were maintained in a humidified atmosphere with 5% CO2 at 37 °C in 25 cm^2 culture flasks with the medium replenished every 2 days. The condition of the cells was monitored using optical microscopy. […] After 24 h of incubation, the medium was replaced with serum-free HG-DMEM containing appropriate concentrations of peptidomimetics. All solutions used in the experiments were prepared with double-distilled water or with the addition of ethanol under sterile conditions to ensure compatibility with the conditions of the bacteriological assay. For 72 h of incubation, half of the medium was replaced with fresh medium after 48 h, and cells were stimulated with peptides for a second time. The XTT cell proliferation assay was then performed according to the manufacturer’s instructions (Roche, Switzerland). Cells were treated with the peptides for either 48 or 72 h, followed by the addition of XTT reagent, and the plates were then incubated at 37 °C in a 5% CO2 environment for 4 h. Plate readings were taken using a standard plate reader at a wavelength of 490 nm (OD = 490 nm). […] Statistical significance was determined with a Mann–Whitney U test with statistical significance p ≤ 0.05. Analysis was performed with Statistica software, and graphs were prepared in GraphPad Prism.

[16] = system: human dermal fibroblast cell line (46BR.1N); assay: XTT cell proliferation assay, fibroblasts; assay type: cell-based; conditions: XTT
Protocol: as §4

In the case of `Cc1ccccc1COC(=O)N[C@@H](CCCNC(=N)N)C(=O)N[C@@H](CC(C)C)C(=O)N[C@H](CNC(=O)/C=C/c1ccccc1)C(C)C` [Compound A-210], the MIC ([1]; H2O) is reported as 32 µg/mL (≈ 49.2 µM), the MIC ([1]; water additive DMSO) is reported as 32 µg/mL (≈ 49.2 µM) and the MBC ([1]; water additive EtOH) is reported as 32 µg/mL (≈ 49.2 µM). The MIC ([1]; water additive EtOH) was 16 µg/mL (≈ 24.6 µM), the MIC ([2]; H2O) was 32 µg/mL (≈ 49.2 µM) and the MIC ([2]; water additive DMSO) was 32 µg/mL (≈ 49.2 µM). The MIC ([2]; water additive EtOH) was 32 µg/mL (≈ 49.2 µM), the MIC ([3]; water additive DMSO) was 32 µg/mL (≈ 49.2 µM) and the MIC ([3]; water additive EtOH) was 32 µg/mL (≈ 49.2 µM). For the same compound, the MBC ([4]; H2O) was 256 µg/mL (≈ 394 µM), the MBC ([4]; water additive DMSO) was 256 µg/mL (≈ 394 µM) and the MBC ([4]; water additive EtOH) was 256 µg/mL (≈ 394 µM). For the same compound, the MIC ([4]; water additive EtOH) was 32 µg/mL (≈ 49.2 µM), the MBC ([5]; H2O) was 8 µg/mL (≈ 12.3 µM) and the MIC ([5]; H2O) was 4 µg/mL (≈ 6.16 µM). For the same compound, the MBC ([5]; water additive DMSO) was 16 µg/mL (≈ 24.6 µM), the MIC ([5]; water additive DMSO) was 8 µg/mL (≈ 12.3 µM) and the MBC ([5]; water additive EtOH) was 8 µg/mL (≈ 12.3 µM). It also gave an MIC ([5]; water additive EtOH) of 4 µg/mL (≈ 6.16 µM), an MIC ([6]; H2O) of 16 µg/mL (≈ 24.6 µM) and an MBC ([6]; water additive DMSO) of 32 µg/mL (≈ 49.2 µM). For the same compound, the MIC ([6]; water additive DMSO) was 16 µg/mL (≈ 24.6 µM), the MIC ([6]; water additive EtOH) was 32 µg/mL (≈ 49.2 µM) and the MBC ([7]; H2O) was 16 µg/mL (≈ 24.6 µM). It also gave an MIC ([7]; H2O) of 16 µg/mL (≈ 24.6 µM), an MBC ([7]; water additive DMSO) of 16 µg/mL (≈ 24.6 µM) and an MIC ([7]; water additive DMSO) of 16 µg/mL (≈ 24.6 µM). The MBC ([7]; water additive EtOH) was 16 µg/mL (≈ 24.6 µM), the MIC ([7]; water additive EtOH) was 16 µg/mL (≈ 24.6 µM) and the MIC ([8]; H2O) was > 512 µg/mL. The MIC ([8]; water additive DMSO) was > 512 µg/mL, the MIC ([8]; water additive EtOH) was > 512 µg/mL and the MIC ([9]; H2O) was > 512 µg/mL. For the same compound, the MIC ([9]; water additive DMSO) was > 512 µg/mL, the MIC ([9]; water additive EtOH) was > 512 µg/mL and the MBC ([10]; H2O) was 256 µg/mL (≈ 394 µM). The MBC ([10]; water additive DMSO) was 256 µg/mL (≈ 394 µM), the MIC ([11]; H2O) was > 512 µg/mL and the MIC ([11]; water additive DMSO) was > 512 µg/mL. For the same compound, the MIC ([11]; water additive EtOH) was > 512 µg/mL, the MIC ([12]; H2O) was 512 µg/mL (≈ 788 µM) and the MIC ([12]; water additive DMSO) was 512 µg/mL (≈ 788 µM). The MBC ([12]; water additive EtOH) was 512 µg/mL (≈ 788 µM), the MIC ([12]; water additive EtOH) was 256 µg/mL (≈ 394 µM) and the “cytotoxicity (LDH), in words” value ([13]; 50-150 μg/mL) was “no negative effect at 50 μg/mL concentration”. The “concentration at which cytotoxic effect starts” value ([13]; LDH) was 100 µg/mL, the “cytotoxicity (LDH), in words” value ([14]; 50-150 μg/mL) was “no negative effect at 50 μg/mL concentration” and the “concentration at which cytotoxic effect starts” value ([14]; LDH) was 100 µg/mL. The proliferation ([15]; 72 h) was “less than 50%”, the “proliferation relative to control at 150 μg/mL (highest tested concentration)” value ([15]; XTT, 150 μg/mL) was 50% and the “effect on proliferation, in words” value ([15]; XTT, 48 and 72 h, 0.01–150 μg/mL) was “negative impact”. For the same compound, the “proliferation relative to control at 150 μg/mL (highest tested concentration)” value ([16]; 150 μg/mL) was 50% and the “effect on proliferation, in words” value ([16]; 48 and 72 h, 0.01–150 μg/mL) was “negative impact”.
